The values below come from patent US8410106B2, “Hydrazine-substituted anthranilic acid derivatives” (Bayer Cropscience AG, priority 2010, dated 2013).

Read-outs that look alike come from different tables or passages of the source.

Series [1] has as its system green peach aphid (Myzus persicae). Nature of the series: Myzus test (MYZUPE spray treatment). The class given is in vivo. The conditions noted are these: foliar, 144 h, read-out: activity (aphids killed). As for the experimental part: After 6 days the activity is determined, in %.
Series [2] relates to larvae of the mustard beetle (Phaedon cochleariae). Nature of the series: Phaedon test (PHAECO spray treatment). The conditions noted are these: in Brassica rapa, foliar, 168 h, read-out: activity (beetle larvae killed).
A short description of series [3]: logP determination by HPLC on reversed-phase columns (C 18), EEC Directive 79/831 Annex V.A8. The class given is physicochemical.
Series [4] concerns caterpillars of the army worm (Spodoptera frugiperda). The series can be described thus: Spodoptera frugiperda test (SPODFR spray treatment). Format: in vivo. The conditions noted are these: foliar, 168 h, read-out: activity (caterpillars killed).
Where [5] appears, read: HPLC, reversed-phase C 18, value in text of the Preparation Examples, read-out: logP.
[6] abbreviates: HPLC, reversed-phase C 18, table value without method mark, read-out: logP.
Where [7] appears, read: application rate 100 g/ha, after 7 days, maize leaf discs, spray.

For `COC(=O)N(C)NC(=O)c1cc(Cl)cc(C)c1NC(=O)c1cc(Cn2nnc(C(F)(F)C(F)(F)C(F)(F)F)n2)nn1-c1ncccc1Cl` [Example 1, methyl N′-(5-chloro-2-{[2-(3-chloropyridin-2-yl)-5-(5-heptalluoropropyltetrazol-2-ylmethyl)-2H-pyrazole-3-carbonyl]amino}-3-methylbenzoyl)-N-methylhydrazinecarboxylate], the pest or weed control at 100 g/ha in series [1] (in Brassica rapa), in series [2] and in series [4] (in Zea mays) was 100% throughout. Moreover, in series [3] (setting [5]), the chromatographic logP was determined as 3.66.

For `COC(=O)NNC(=O)c1cc(I)cc(C)c1NC(=O)c1cc(Cn2nnc(C(F)(F)C(F)(F)C(F)(F)F)n2)nn1-c1ncccc1Cl` [Example 2, Methyl N′-(2-{[2-(3-chloropyridin-2-yl)-5-(5-heptalluoropropyltetrazol-2-ylmethyl)-2H-pyrazole-3-carbonyl]amino}-5-iodo-3-methylbenzoyl)hydrazincarboxylate], the pest or weed control at 100 g/ha in series [2] and in series [4] (in Zea mays) was 100% each time. The chromatographic logP in series [3] (setting [5]) is 3.58.

Regarding `COC(=O)NNC(=O)c1cc(Cl)cc(C)c1NC(=O)c1cc(Cn2nnc(C(F)(F)F)n2)nn1-c1ncccc1Cl` [Example 3], the pest or weed control at 100 g/ha in series [1] (in Brassica rapa), in series [2] and in series [4] (in Zea mays) was 100% each time. Besides, in series [3], the chromatographic logP is 2.73.

Consider `COC(=O)NNC(=O)c1cc(C#N)cc(C)c1NC(=O)c1cc(Cn2nnc(C(F)(F)F)n2)nn1-c1ncccc1Cl` [Example 4], for which the pest or weed control at 100 g/ha in series [1] (in Brassica rapa), in series [2] and in series [4] (in Zea mays) was 100% each time. This compound yielded a chromatographic logP in series [3] of 2.41.

Take `COC(=O)N(C)NC(=O)c1cc(Cl)cc(C)c1NC(=O)c1cc(Cn2nnc(C(F)(F)F)n2)nn1-c1ncccc1Cl` [Example 5]: the pest or weed control at 100 g/ha in series [1] (in Brassica rapa), in series [2] and in series [4] (in Zea mays) was 100% throughout. The chromatographic logP in series [3] is 2.96.

Consider `COC(=O)N(C)NC(=O)c1cc(C#N)cc(C)c1NC(=O)c1cc(Cn2nnc(C(F)(F)F)n2)nn1-c1ncccc1Cl` [Example 6], for which the pest or weed control at 100 g/ha in series [1] (in Brassica rapa), in series [2] and in series [4] (in Zea mays) was 100% in each case. The compound further displayed a chromatographic logP in series [3] of 2.63.

Take `COC(=O)N(C)N(C)C(=O)c1cc(Cl)cc(C)c1NC(=O)c1cc(Cn2nnc(C(F)(F)F)n2)nn1-c1ncccc1Cl` [Example 7]: the pest or weed control at 100 g/ha in series [1] (in Brassica rapa), in series [2] and in series [4] (in Zea mays) was 100% each time. The same compound registered a chromatographic logP in series [3] of 3.39.

`COC(=O)N(C)N(C)C(=O)c1cc(C#N)cc(C)c1NC(=O)c1cc(Cn2nnc(C(F)(F)F)n2)nn1-c1ncccc1Cl` [Example 8]: the pest or weed control at 100 g/ha in series [1] (in Brassica rapa), in series [2] and in series [4] (in Zea mays) was 100% throughout. In series [3], this compound displayed a chromatographic logP of 2.97.

On to `COC(=O)N(C)NC(=O)c1cc(Cl)cc(C)c1NC(=O)c1cc(Cn2nc(C(F)(F)F)cc2C(F)(F)F)nn1-c1ncc(C(F)(F)F)cc1Cl` [Example 10], for which the chromatographic logP in series [3] (setting [6]) was 4.35.

As to `COC(=O)N(C)NC(=O)c1cc(Cl)cc(Cl)c1NC(=O)c1cc(Cn2nc(C(F)(F)F)c(Cl)c2C)nn1-c1ncccc1Cl` [Example 11], the figures for the pest or weed control at 100 g/ha in series [1] (in Brassica rapa), in series [2] and in series [4] (in Zea mays) were 90%, 100% and 100%, respectively. In series [3], this compound showed a chromatographic logP of 3.55.

With `COC(=O)N(C)NC(=O)c1cc(Cl)cc(Cl)c1NC(=O)c1cc(Cn2nc(C(F)(F)F)c(Br)c2C)nn1-c1ncccc1Cl` [Example 12], the pest or weed control at 100 g/ha in series [1] (in Brassica rapa), in series [2] and in series [4] (in Zea mays) was 100% each time. In series [3], the chromatographic logP worked out at 3.57.

As to `COC(=O)N(C)NC(=O)c1cc(Cl)cc(C)c1NC(=O)c1cc(Cn2nc(C(F)(F)C(F)(F)F)cc2C(F)(F)C(F)(F)F)nn1-c1ncccc1Cl` [Example 13], the pest or weed control at 100 g/ha in series [2] and in series [4] (setting [7]) was 100% each time. In series [3] (setting [6]), the chromatographic logP was 4.32.

`COC(=O)N(C)NC(=O)c1cc(Cl)cc(Cl)c1NC(=O)c1cc(Cn2nc(C(F)(F)C(F)(F)F)cc2C(F)(F)C(F)(F)F)nn1-c1ncccc1Cl` [Example 14]: the pest or weed control at 100 g/ha in series [2] and in series [4] (setting [7]) was 100% throughout. For the same compound, in series [3] (setting [6]), the chromatographic logP stood at 4.3.

For `COC(=O)N(C)NC(=O)c1cc(Cl)cc(Cl)c1NC(=O)c1cc(Cn2nc(C(F)(F)F)cc2-c2ccccc2)nn1-c1ncccc1Cl` [Example 15], in series [3] (setting [6]), the chromatographic logP worked out at 3.82. In addition, in series [4] (setting [7]), the pest or weed control at 100 g/ha came out at 100%.

As to `COC(=O)N(C)NC(=O)c1cc(Cl)cc(Cl)c1NC(=O)c1cc(Cn2nc(C(F)(F)F)cc2C(F)(F)F)nn1-c1ncc(C(F)(F)F)cc1Cl` [Example 18], the chromatographic logP in series [3] (setting [6]) worked out at 4.32.

With `COC(=O)N(C)NC(=O)c1cc(Cl)cc(Cl)c1NC(=O)c1cc(Cn2nc(C(F)(F)F)c([N+](=O)[O-])c2C)nn1-c1ncccc1Cl` [Example 19], the pest or weed control at 100 g/ha in series [2] and in series [4] (setting [7]) was 100% throughout. Moreover, the chromatographic logP in series [3] (setting [6]) amounted to 3.11.

For `COC(=O)N(C)NC(=O)c1cc(Cl)cc(Cl)c1NC(=O)c1cc(Cn2nc(C(F)(F)F)nc2C)nn1-c1ncccc1Cl` [Example 21], the results for the pest or weed control at 100 g/ha in series [1] (in Brassica rapa) and in series [4] (in Zea mays) were 90% and 100%, respectively. Moreover, the chromatographic logP in series [3] was 2.51.

As to `COC(=O)N(C)NC(=O)c1cc(C#N)cc(C)c1NC(=O)c1cc(COc2ccc(C(F)(F)F)nn2)nn1-c1ncccc1Cl` [Example 22], the pest or weed control at 100 g/ha in series [1] (in Brassica rapa) and in series [2] was 100% each time. Further, the chromatographic logP in series [3] stood at 2.53.

In series [3], `COC(=O)N(C)NC(=O)c1cc(Cl)cc(C)c1NC(=O)c1cc(Cn2cc(C(C)(C)C)nn2)nn1-c1ncccc1Cl` [Example 24] came in with a chromatographic logP of 2.53.

For `COC(=O)N(C)N(C)C(=O)c1cc(Cl)cc(C)c1NC(=O)c1cc(Cn2cc(C3CC3)nn2)nn1-c1ncccc1Cl` [Example 39], the pest or weed control at 100 g/ha in series [1] (in Brassica rapa) turned out to be 80%. Also, the chromatographic logP in series [3] was found to be 2.71.

With `COC(=O)N(C)N(C)C(=O)c1cc(Cl)cc(C)c1NC(=O)c1cc(Cn2cc(C(C)(C)C)nn2)nn1-c1ncccc1Cl` [Example 40], the chromatographic logP in series [3] worked out at 2.98.

As for `COC(=O)N(C)NC(=O)c1cc(Cl)cc(Cl)c1NC(=O)c1cc(Cn2nnc(C(F)(F)F)n2)nn1-c1ncccc1Cl` [Example 43], the chromatographic logP in series [3] stood at 2.92.

In series [3], `COC(=O)N(C)NC(=O)c1cc(F)cc(C)c1NC(=O)c1cc(Cn2nnc(C(F)(F)C(F)(F)F)n2)nn1-c1ncccc1Cl` [Example 44] came in with a chromatographic logP of 3.05.

On to `COC(=O)N(C)NC(=O)c1cc(C#N)cc(C)c1NC(=O)c1cc(Cn2nnnc2C(F)(F)F)nn1-c1ccccc1Cl` [Example 55], for which the chromatographic logP in series [3] (setting [6]) stood at 2.69.

`COC(=O)N(C)NC(=O)c1cc(C#N)cc(C)c1NC(=O)c1cc(Cn2nnc(C(F)(F)F)n2)nn1-c1ccccc1Cl` [Example 56]: the chromatographic logP in series [3] (setting [6]) stood at 2.97.

On to `COC(=O)NNC(=O)c1cc(C#N)cc(C)c1NC(=O)c1cc(Cn2nnc(C(F)(F)F)n2)nn1-c1ccccc1Cl` [Example 58], for which, in series [3] (setting [6]), the chromatographic logP was 2.79.

In turn, `COC(=O)NNC(=O)c1cc(Cl)cc(C)c1NC(=O)c1cc(Cn2cc(C(C)(C)C)nn2)nn1-c1ncccc1Cl` [Example 62] yielded a chromatographic logP in series [3] of 2.38. The pest or weed control at 100 g/ha in series [4] (in Zea mays) is 100%.

Compound `COC(=O)N(C)NC(=O)c1cc(Cl)cc(C)c1NC(=O)c1cc(Cn2cnc(SC)n2)nn1-c1ncccc1Cl` [Example 64] gave a chromatographic logP in series [3] of 2.09.

As for `COC(=O)N(C)NC(=O)c1cc(Cl)cc(C)c1NC(=O)c1cc(Cn2nc(C)c(Br)c2C)nn1-c1ncccc1Cl` [Example 65], the pest or weed control at 100 g/ha in series [1] (in Brassica rapa) amounted to 80%; in series [4] (in Zea mays), 100%. Moreover, in series [3], the chromatographic logP stood at 2.97.

With `COC(=O)N(C)NC(=O)c1cc(Cl)cc(C)c1NC(=O)c1cc(CNS(=O)(=O)c2ccccc2C(F)(F)F)nn1-c1ncccc1Cl` [Example 70], in series [3] (setting [6]), the chromatographic logP is 2.81.

Compound `COC(=O)N(C)NC(=O)c1cc(Cl)cc(C)c1NC(=O)c1cc(CNS(=O)(=O)c2ccccc2)nn1-c1ncccc1Cl` [Example 71] displayed a chromatographic logP in series [3] of 2.42.

As for `COC(=O)N(C)NC(=O)c1cc(C#N)cc(C)c1NC(=O)c1cc(Cn2cnc(C(F)(F)F)c2C(F)(F)F)nn1-c1ncccc1Cl` [Example 76], in series [3] (setting [6]), the chromatographic logP was determined as 2.77.

In the case of `COC(=O)N(C)NC(=O)c1cc(I)cc(C)c1NC(=O)c1cc(Cn2cnc(C(F)(F)F)c2)nn1-c1ncccc1Cl` [Example 77], the pest or weed control at 100 g/ha was determined as 80% in series [1] (in Brassica rapa) and 83% in series [4] (in Zea mays). The same compound returned a chromatographic logP in series [3] of 2.56.

Consider `COC(=O)N(C)NC(=O)c1cc(C#N)cc(C)c1NC(=O)c1cc(Cn2cnc(C(F)(F)F)c2)nn1-c1ncccc1Cl` [Example 78], for which, in series [1] (in Brassica rapa), the pest or weed control at 100 g/ha worked out at 90%. In addition, the chromatographic logP in series [3] stood at 2.1.

Consider `COC(=O)NNC(=O)c1cc(I)cc(C)c1NC(=O)c1cc(Cn2cnc(C(F)(F)F)c2)nn1-c1ncccc1Cl` [Example 80], for which, in series [3], the chromatographic logP stood at 2.38.

As for `COC(=O)NNC(=O)c1cc(C#N)cc(C)c1NC(=O)c1cc(Cn2nnc(C(F)(F)F)n2)nn1-c1ccccc1Cl` [Example 84], the pest or weed control at 100 g/ha in series [1] (application rate 100 g/ha, after 6 days, Chinese cabbage leaf discs, spray) amounted to 100%; in series [2] it was 100%; in series [4] (setting [7]), 100%.
